Laboratory results: paper PMC5627017 (Frontiers in Pharmacology, 2017)
Read-outs that look alike come from different tables or passages of the source. Each block holds one compound with its values, some of them ahead of it.

Experiments:
H1R [1] = test system: H1R; parameters: method as in Slack et al., 2011a,b; conditions: ex vivo organ bath, antagonists continuously removed; ref Slack et al., 2011a,b; cited from earlier work
[2] = biological target: T1, H1R endogenously expressed in HeLa cells (Homo sapiens, UniProt P35367); assay: DMR receptor recovery after washout; conditions: 10x Ki pre-incubation, 1 h and 2 h after washout
Experimental: For the measurement of DMR in HeLa cells upon treatment by agonists and antagonists, a resonant waveguide grating (RWG) biosensor method was used.
HeLa cells were grown in DMEM High Glucose medium with L-Glutamine supplemented with 10% FBS and 1x penicillin/streptomycin [all reagents were obtained from Capricorn Scientific GmbH (Ebsdorfergrund, Germany)] and incubated in humidified atmosphere at 37°C and 5% CO2 in air.
As vehicle control wells with medium/DMSO treated cells were included. The LFC plate was incubated overnight in a humidified atmosphere at 37°C and 5% CO2 in air. On the next day assay buffer [HBSS (Sigma–Aldrich), 20 mM HEPES (Sigma–Aldrich), 0.5% (v/v) DMSO] was adapted to room temperature before use. 22–24 h after cell seeding antagonists were removed from the LFC plate and wells were washed four times with label-free assay buffer (25 μL/ well). The total assay volume after the washing step was 30 μL/ well.
In all experiments a DMSO concentration of 0.5% (v/v) was not exceeded. The LFC plate was placed in an EnSpire® Multimode Plate Reader equipped with Corning® Epic® Label-free technology.
Data was analyzed individually for each quadrant of the 384 well LFC plate using GraphPad Prism.
Depicted values represent mean and standard deviation of two independent experiments.

[3] = biological target: T1, H1R endogenously expressed in HeLa cells; assay: Receptor recovery of calcium mobilization after antagonist washout; type: cell-based; parameters: HeLa cells, endogenously expressing the H1R at low, but physiological relevant densities, were used in both assays; endogenous in cells; host or cells: HeLa cells (in-house cell biobank); conditions: for RecT (receptor recovery time), calcium mobilization: reciprocal of krec
Experimental: HeLa cells were cultured as described above. HeLa cells were lifted from a subconfluent dish by incubating with a 1x trypsin solution for 4 min. Cells were then seeded in a black, clear bottom 96-well plate, with 2 × 10^4 cells per well. Subsequently, the cells were pre-incubated overnight in culture medium with a range of antagonist concentrations or without antagonist, as is specified per assay format below. After 18–20 h, assay buffer was prepared by supplementing HBSS with 20 mM HEPES pH 7.4 and 2.5 mM probenecid (from a 2.5 × 10^-1 M stock in water). Dye solution was then prepared by dissolving one aliquot of Fluo4 NW in 22 mL assay buffer. Medium was aspirated and Fluo4 NW dye solution was supplemented to the cells and incubated for an hour at 37°C in the presence of the respective antagonist. After labeling the cells with Fluo4 NW, readout of the calcium response was measured per individual well in series.
One 96-well plate with HeLa cells was separated into four sections and each section was pre-incubated with a respective 10 times Ki concentrations of antihistamine or vehicle condition. […] Following Fluo4 NW loading in the presence of the respective concentration antihistamine, cells were washed and reconstituted in 100 μL assay buffer that was pre-heated to 37°C (t0). […] The first measurement was started approximately 2 min after washing the cells and subsequent wells were measured with 75 s intervals. […] The data was analyzed using non-linear regression with a one-phase association model in GraphPad Prism according to Eq. 3.
(3) Y=Y0+(Ymax−Y0)×(1−e^(−krec×t))
For all other antihistamines a free fit of Ymax was allowed, reported in the results as the steady-state recovery (%). Receptor recovery times (RecT) were calculated for each experiment as the reciprocal of the krec. Reported krec and RecT values are the mean ± SEM of ≥3 experiments.

[4] = biological target: T1, H1R endogenously expressed in HeLa cells
Experimental: (1) normalizedfluorescentresponse=FHA−Fb/Ft−Fb
The AUC was quantified using GraphPad Prism (GraphPad Software, San Diego, CA, United States). Settings were as such that peaks were ignored when there was less than 1% difference between min and max fluorescence and/or peaks shaped by fewer than 10 data points. The resulting dose-response curves were analyzed by non-linear regression according to Eq. 2.

H1R [5] = test system: H1R; parameters: method as in Gillard et al., 2002; Schoepke et al., 2013; conditions: ref Gillard et al., 2002; Schoepke et al., 2013; cited from earlier work
[6] = biological target: T1, H1R endogenously expressed in HeLa cells; remark: listed apart in the source
[7] = 10x Ki pre-incubation, washout, 37°C, mean ± SEM of ≥3

T1 sequence (P35367 whole entry): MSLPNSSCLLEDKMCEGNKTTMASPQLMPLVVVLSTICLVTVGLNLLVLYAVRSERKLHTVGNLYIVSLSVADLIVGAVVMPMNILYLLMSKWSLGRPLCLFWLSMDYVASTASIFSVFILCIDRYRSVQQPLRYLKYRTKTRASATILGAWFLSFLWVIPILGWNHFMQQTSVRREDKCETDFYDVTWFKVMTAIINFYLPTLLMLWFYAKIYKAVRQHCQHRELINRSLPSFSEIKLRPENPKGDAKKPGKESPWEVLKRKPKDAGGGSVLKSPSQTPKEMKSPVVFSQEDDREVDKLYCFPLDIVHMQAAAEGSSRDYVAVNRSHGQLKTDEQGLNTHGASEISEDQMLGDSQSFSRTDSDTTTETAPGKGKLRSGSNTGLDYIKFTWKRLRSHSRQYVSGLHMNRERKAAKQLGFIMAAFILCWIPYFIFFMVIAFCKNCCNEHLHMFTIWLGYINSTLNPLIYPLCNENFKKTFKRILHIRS

Structure (SMILES): O=c1c2ccccc2c(Cc2ccc(Cl)cc2)nn1C[C@H]1CCCN1CCCCc1ccc(OCCCN2CCCCCC2)cc1 [GSK1004723]
inhibition of histamine-induced, H1R mediated bronchial contraction (in words) (H1R [1]): retained a long inhibition

Structure (SMILES): Cc1ccc(/C(=C\CN2CCCC2)c2ccccn2)cc1 [Triprolidine, triprolidine]
insurmountable antagonism of histamine DMR response after washout (in words) [2]: showed insurmountable antagonism, but this was the same at 1 and 2 h

Structure (SMILES): CN1CCCC(n2nc(Cc3ccc(Cl)cc3)c3ccccc3c2=O)CC1 (centres unmarked) [azelastine]
inhibition of histamine-induced, H1R mediated bronchial contraction (in words) (H1R [1]): retained a long inhibition

Second part, led by results:

insurmountable antagonism of histamine DMR response after washout (in words) [2]: pronounced
suppression of maximal histamine DMR response after washout (in words) [2]: suppressed the Emax up to 2 h
krec (recovery rate of histamine induced calcium mobilization) ([3]; 10x Ki overnight pre-incubation, washout, 10^-5 M histamine, 37°C, mean ± SEM of ≥3): 0.014 ± 0.003 min⁻¹
recovery of histamine induced calcium mobilization after washout (in words) ([3]; 10x Ki pre-incubation, 10^-5 M histamine): even more delayed
Steady-state recovery (%) ([3]; fitted Ymax of histamine-induced calcium response after washout, relative to vehicle pre-treated cells): 104 ± 10%
RecT (receptor recovery time), calcium mobilization [3, 7]: 87 ± 20 min
antagonism of histamine-induced calcium mobilization after overnight pre-incubation (in words) ([4]; HeLa cells, increasing antagonist and histamine concentrations): full insurmountable inhibition
Structure (SMILES): O=C(O)COCCN1CCN([C@H](c2ccccc2)c2ccc(Cl)cc2)CC1 [Levocetirizine, levocetirizine]
in vivo efficacy after depletion of free concentrations in the blood (in words) (H1R [5]): hysteresis of efficacy

insurmountable antagonism of histamine DMR response after washout (in words) [2]: pronounced
suppression of maximal histamine DMR response after washout (in words) [2]: suppressed the Emax up to 2 h
krec (recovery rate of histamine induced calcium mobilization) [3]: 0.006 ± 0.001 min⁻¹
recovery of histamine induced calcium mobilization after washout (in words) [3]: even more delayed
RecT (receptor recovery time), calcium mobilization [3, 7]: 226 ± 60 min
antagonism of histamine-induced calcium mobilization after overnight pre-incubation (in words) [4]: full insurmountable inhibition
Structure (SMILES): CN(C)CC/C=C1/c2ccccc2COc2ccc(CC(=O)O)cc21 [Olopatadine, olopatadine]

Hill slope of histamine, DMR (AUC) ([6]; AUC): 0.88
Hill slope of histamine, DMR (peak response) ([6]; peak response): 0.92
Hill slope of histamine, calcium mobilization [4]: 1.1 ± 0.1
Structure (SMILES): NCCc1c[nH]cn1 [histamine]
